We go through eleven molecules from patent publication US6716851B2, “Substituted 2-aryl-4-arylaminopyrimidines and analogs as activators or caspases and inducers of apoptosis and the use thereof” (Cytovia, Inc., priority 2000, dated 2004).

One test has as its system T-47D cells. Put plainly: Caspase cascade activation (N-(Ac-DEVD)-N'-ethoxycarbonyl-R110 fluorogenic substrate) in T-47D cells. Type of test: cell-based, Human. The settings on record: 48 h incubation; for EC50: Homo sapiens, T47D, caspase activation potency, read-out: T47 EC50; for T47 Ratio 48 hr: caspase activity: ratio of net RFU of test compound to control. The procedure: (§1) Human breast cancer cell lines T-47D and ZR-75-1 were grown according to media component mixtures designated by American Type Culture Collection +10% FCS (Invitrogen Corporation, Life Technologies division), in a 5% CO2-95% humidity incubator at 37° C. T-47D and ZR-75-1 cells were maintained at a cell density between 50 and 80% confluency at a cell density of 0.1 to 0.6×10^6 cells/ml. Cells were harvested at 600× g and resuspended at 0.65×10^6 cells/ml into appropriate media +10% FCS. An aliquot of […] of cells was added to a well of a […] microtiter plate containing 2.5 μl of a 10% DMSO in RPMI-1640 media solution containing 0.16 to 100 μM of 4-(3-methoxyanilino)-2-(2-pyridinyl)-6-(trifluoromethyl)pyrimidine or other test compound (0.016 to 10 μM final). An aliquot of 22.5 μl of cells was added to a well of a 384-well microtiter plate containing 2.5 μl of a 10% DMSO in RPMI-1640 media solution without test compound as the control sample. The samples were mixed by agitation and then incubated at 37° C. for 48 h in a 5% CO2-95% humidity incubator. After incubation, the samples were removed from the incubator and 25 μl of a solution containing 14 μM of N-(Ac-DEVD)-N′-ethoxycarbonyl-R110 fluorogenic substrate (Cytovia, Inc.; WO99/18856), 20% sucrose (Sigma), 20 mM DTT (Sigma), 200 mM NaCl (Sigma), 40 mM Na PIPES buffer pH 7.2 (Sigma), and 500 μg/ml lysolecithin (Calbiochem) was added. The samples were mixed by agitation and incubated at room temperature. Using a fluorescent plate reader (Model SpectraMax Gemini, Molecular Devices), an initial reading (T=0) was made approximately 1-2 min after addition of the substrate solution, employing excitation at 485 nm and emission at 530 nm, to determine the background fluorescence of the control sample. After the 3 h incubation, the samples were read for fluorescence as above (T=3 h).
(§2) The Relative Fluorescence Unit values (RFU) were used to calculate the sample readings as follows:
(§3) RFU(T=3h)−Control RFU(T=0)=Net RFU(T=3h)
(§4) The activity of caspase cascade activation was determined by the ratio of the net RFU value for 4-(3-methoxyanilino)-2-(2-pyridinyl)-6-(trifluoromethyl)pyrimidine or other test compound to that of control samples. The EC50 (nM) was determined by a sigmoidal dose-response calculation (Prism 2.0, GraphPad Software Inc.).

Another test relates to ZR-75-1 cells. Put plainly: Caspase cascade activation (N-(Ac-DEVD)-N'-ethoxycarbonyl-R110 fluorogenic substrate) in ZR-75-1 cells. It counts as cell-based, Human. The following applies: ZR-75-1, 48 h incubation; for EC50: Homo sapiens, caspase activation potency; for ZR Ratio 48 hr: caspase activity: ratio of net RFU of test compound to control. The procedure: as §1, §2, §3, §4

Broadly, the EC50 is the concentration giving half of the maximal effect. For `COc1cc(Nc2cc(C(F)(F)F)nc(-c3cc(Cl)nc(Cl)c3)n2)cc(OC)c1` [Example 163, 4-(3,5-Dimethoxyanilino)-2-(2,6-dichloro-4-pyridinyl)-6-trifluoromethylpyrimidine], in the test with T-47D cells, the EC50 is > 5000 nM and the “T47 Ratio 48 hr” value is 1.1. In the test on ZR-75-1 cells, the EC50 was > 5000 nM and the “ZR Ratio 48 hr” value is 1.6.
On to `COc1ccc(C(F)(F)F)cc1Nc1cc(C(F)(F)F)nc(-c2cccnc2)n1` [Example 89, 4-(2-Methoxy-5-trifluoromethylanilino)-2-(3-pyridinyl)-6-(trifluoromethyl)pyrimidine], for which, in the test with T-47D cells, the 50% effective concentration (EC50) is 2740 nM and the “T47 Ratio 48 hr” value is on record as 8.7. In addition, in the test with ZR-75-1 cells, the 50% effective concentration (EC50) is 1600 nM and the “ZR Ratio 48 hr” value is given as 9.8.
Take `COc1ccc(Br)c(Nc2cc(C(F)(F)F)nc(-c3cccnc3)n2)c1` [Example 127, 4-(2-Bromo-5-methoxyanilino)-2-(3-pyridinyl)-6-(trifluoromethyl)pyrimidine]: in the test with T-47D cells, the EC50 is 279 nM and the “T47 Ratio 48 hr” value was determined as 10.3. In the test with ZR-75-1 cells, the EC50 stood at 550 nM and the “ZR Ratio 48 hr” value was 5.3.
For `COc1cccc(Nc2cc(N3CCOCC3)nc(-c3ccccc3)n2)c1` [Example 46, 6-Morpholino-4-(3-methoxyanilino)-2-phenyl-pyrimidine], in the test with T-47D cells, the EC50 was > 5000 nM and the “T47 Ratio 48 hr” value stood at 1.5. Moreover, in the test on ZR-75-1 cells, the EC50 was > 5000 nM and the “ZR Ratio 48 hr” value came out at 1.4.
Turning to `COc1ccc(OC)c(Nc2cc(C(F)(F)F)nc(-c3ccccc3)n2)c1` [Example 75, 4-(2,5-Dimethoxyanilino)-2-phenyl-6-(trifluoromethyl)pyrimidine], in the test with T-47D cells, the EC50 was found to be 2290 nM and the “T47 Ratio 48 hr” value is on record as 16.3. Further, in the test with ZR-75-1 cells, the 50% effective concentration (EC50) turned out to be 3280 nM and the “ZR Ratio 48 hr” value turned out to be 7.8.
On to `COc1cc(Nc2cc(C(F)(F)F)nc(-c3ccncc3)n2)c(OC)cc1Cl.Cl` [Example 158, 4-(4-Chloro-2,5-dimethoxyanilino)-2-(4-pyridinyl)-6-(trifluoromethyl)pyrimidine hydrochloride], for which, in the test with T-47D cells, the EC50 is 509 nM and the “T47 Ratio 48 hr” value amounted to 9.5. Further, in the test on ZR-75-1 cells, the EC50 stood at 133 nM and the “ZR Ratio 48 hr” value came out at 6.0.
Turning to `FC(F)(F)c1cc(Nc2cccc3[nH]ccc23)nc(-c2ccccn2)n1` [Example 212, 4-(Indol-4-ylamino)-2-(2-pyridinyl)-6-trifluoromethylpyrimidine], in the test with T-47D cells, the concentration for a half-maximal effect (EC50) was 3110 nM and the “T47 Ratio 48 hr” value came to 5.8. For the same molecule, in the test with ZR-75-1 cells, the midpoint of the response, the EC50, lay at 2780 nM and the “ZR Ratio 48 hr” value was 6.1.
For `COc1ccc(Nc2cc(C(F)(F)F)nc(-c3cccnc3)n2)c(OC)n1` [Example 206, 4-(2,6-Dimethoxypyridin-3-ylamino)-2-(3-pyridinyl)-6-trifluoromethylpyrimidine], in the test with T-47D cells, the EC50 stood at 802 nM and the “T47 Ratio 48 hr” value was 6.9. In addition, in the test on ZR-75-1 cells, the EC50 amounted to 583 nM and the “ZR Ratio 48 hr” value was 2.9.
`COc1ccc(Cl)c(Nc2cc(C(F)(F)F)nc(-c3cccnc3)n2)c1` [Example 50, 4-(2-Chloro-5-methoxyanilino)-2-(3-pyridinyl)-6-(trifluoromethyl)pyrimidine]: in the test on T-47D cells, the EC50 came out at 172 nM and the “T47 Ratio 48 hr” value was found to be 10. In the test with ZR-75-1 cells, it took 322 nM to reach a half-maximal effect (EC50) and the “ZR Ratio 48 hr” value is reported as 5.3.
Consider `COc1cc(Nc2cc(C(F)(F)F)nc(-c3cccnc3)n2)c(C(C)=O)cc1OC` [Example 134, 4-(2-Acetyl-4,5-dimethoxyanilino)-2-(3-pyridinyl)-6-(trifluoromethyl)pyrimidine], for which, in the test with T-47D cells, the half-maximal effective concentration (EC50) was determined as 807 nM and the “T47 Ratio 48 hr” value is recorded as 16.5. In the test on ZR-75-1 cells, the EC50 was > 5000 nM and the “ZR Ratio 48 hr” value was determined as 1.5.
For `COc1cccc(Nc2cc(C)nc(-c3ccccn3)n2)c1` [Example 16, 4-(3-Methoxyanilino)-6-methyl-2-(2-pyridinyl)pyrimidine], in the test on T-47D cells, the EC50 came out at 288 nM and the “T47 Ratio 48 hr” value was 19.5. Also, in the test with ZR-75-1 cells, it took 292 nM to reach a half-maximal effect (EC50) and the “ZR Ratio 48 hr” value stood at 3.3.
